From patent US20240067693A1, “POLYPEPTIDES AND USES THEREOF” (MEDIMMUNE LIMITED, priority 2020, published 2024)
Numbered stars: 1 amine (or outer) side, 2 acyl side, 3 side chain; on linkers, the order of the positions; unused ones are H or OH. Bridge positions count the residues as written; N and C are the ends. Square brackets hold non-standard residues; d marks the D form. Side chains are listed from the residue outwards. Peptide text beside a SMILES is read from it. * marks the point of attachment. C18 diacid = O=C(O)CCCCCCCCCCCCCCCCC(=O)*; γGlu = O=C(O)[C@H](CCC(=O)[*:2])N[*:1]; αMeF = C[C@](N)(Cc1ccccc1)C(=O)O; Aib = CC(C)(N)C(=O)O

Experiments:
[1] = target: T1, human amylin receptor (calcitonin receptor co-expressed with receptor activity modifying protein, RAMP3) (hAMYR3) (Homo sapiens, UniProt O60896+P30988); test: cAMP production in 1321N1 cells with stable recombinant expression of human amylin receptor (hAMYR3); format: cell-based; details: for Ratio (selectivity hAMYR vs hCTR, ratio of EC50 values at the two receptors): EC50 hCTR / EC50 hAMYR3; for EC50: cAMP, 1321N1 cells, assay buffer with 0.1% BSA, read-out: EC50 (pM) hAMYR3
T1 construct: expressed in transfected cells
T1 sequence (P30988 25-474): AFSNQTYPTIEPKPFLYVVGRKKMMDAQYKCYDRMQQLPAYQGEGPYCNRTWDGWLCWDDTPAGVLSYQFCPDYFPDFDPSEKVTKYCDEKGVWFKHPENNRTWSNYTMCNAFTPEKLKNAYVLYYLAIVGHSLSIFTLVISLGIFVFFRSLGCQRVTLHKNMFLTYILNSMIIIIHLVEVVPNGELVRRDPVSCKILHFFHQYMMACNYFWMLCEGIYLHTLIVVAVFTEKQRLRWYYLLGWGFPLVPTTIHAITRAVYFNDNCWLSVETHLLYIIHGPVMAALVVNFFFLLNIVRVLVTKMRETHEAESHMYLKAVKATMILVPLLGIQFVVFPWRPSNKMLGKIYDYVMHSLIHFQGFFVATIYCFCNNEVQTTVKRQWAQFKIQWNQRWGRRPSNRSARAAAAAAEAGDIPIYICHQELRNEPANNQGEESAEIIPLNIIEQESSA
T1 sequence (O60896 24-148 partner): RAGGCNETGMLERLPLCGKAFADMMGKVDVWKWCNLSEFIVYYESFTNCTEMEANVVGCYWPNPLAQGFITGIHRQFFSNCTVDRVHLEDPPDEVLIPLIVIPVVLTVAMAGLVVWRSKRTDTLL
Outline: (§1)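 EC50 values come from 4-parameter logistic fits of HTRF cAMP signal, normalised to maximal calcitonin or amylin effect. Peptides were tested in duplicate for 30 min at RT in IBMX-containing (0.5 mM) BSA/HEPES buffer pH 7.4 on stable 1321N1 (human CTR, AMYR3) or HEK (rat CTR, AMYR3) lines.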

[2] = target: T2, human calcitonin receptor (hCTR) (Homo sapiens, UniProt P30988); test: cAMP production in 1321N1 cells with stable recombinant expression of human calcitonin receptor (hCTR); format: cell-based; details: cAMP, 1321N1 cells, assay buffer with 0.1% BSA; read-out: EC50 (pM) hCTR
T2 construct: expressed in transfected cells
T2 sequence (P30988 25-474): T1 sequence (P30988 25-474)
Outline: as §1

[3] = Thioflavin T fibrillation assay; format: physicochemical; details: for Time taken to detect increase in fluorescence intensity: ThT fibrillation assay, peptide 1 mg/mL in 25 mM sodium acetate buffer pH 4.0, 6 days at 37 °C with shaking, >144 h = no increase
Outline: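 Peptides at 1 mg/mL in 25 mM sodium acetate pH 4.0 with ThT (from 0.25 mM stock), incubated 6 days at 37 °C with intermittent orbital shaking at 500–750 rpm. Fluorescence (ex 444/em 480 nm) read every 30 min; value is average time to a rise in baseline-corrected signal.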

[4] = in vivo; details: male, Sprague-Dawley, rat, 20 nmol/kg

Structure (SMILES)	Ratio (selectivity hAMYR vs hCTR, ratio of EC50 values at the two receptors) [1]	EC50 [1]	EC50 [2]	fibril-forming tendency ([3]; ThT assay, 1 mg/mL, pH 4.0, 37 °C, compared to pramlintide)	Time taken to detect increase in fluorescence intensity [3]	half-life ([4]; iv)	half-life ([4]; sc)
CC[C@H](C)[C@H](NC(=O)[C@@H]1CCCN1C(=O)CNC(=O)[C@H](Cc1ccccc1)NC(=O)[C@H](CC(N)=O)NC(=O)[C@H](CC(N)=O)NC(=O)[C@H](CO)NC(=O)[C@H](CO)NC(=O)[C@H](Cc1c[nH]cn1)NC(=O)[C@@H](NC(=O)[C@H](CC(C)C)NC(=O)[C@H](Cc1ccccc1)NC(=O)[C@H](CC(N)=O)NC(=O)[C@H](C)NC(=O)[C@H](CC(C)C)NC(=O)[C@H](CCCNC(=N)N)NC(=O)[C@H](CCC(N)=O)NC(=O)[C@@H](NC(=O)[C@H](C)NC(=O)[C@@H]1CSSC[C@H](NC(=O)[C@H](CCCCN)NC(=O)CNC(=O)CNC(=O)CNC(=O)CC[C@H](NC(=O)CC[C@H](NC(=O)CCCCCCCCCCCCCCCCC(=O)O)C(=O)O)C(=O)O)C(=O)N[C@@H](CC(N)=O)C(=O)N[C@@H]([C@@H](C)O)C(=O)N[C@@H](C)C(=O)N[C@@H]([C@@H](C)O)C(=O)N1)[C@@H](C)O)C(C)C)C(=O)N[C@@H](CC(C)C)C(=O)N1CCC[C@H]1C(=O)N1CCC[C@H]1C(=O)N[C@H](C(=O)N[C@@H](CC(N)=O)C(=O)N[C@H](C(=O)NCC(=O)N[C@@H](CO)C(=O)N[C@@H](CC(N)=O)C(=O)N[C@H](C(=O)N[C@@H](Cc1ccc(O)cc1)C(N)=O)[C@@H](C)O)C(C)C)[C@@H](C)O [Peptide 4] ({C18 diacid-γGlu-γGlu}-GGGKCNTATCATQRLANFLVHSSNNFGPILPPTNVGSNTY-NH2; disulfide 5-10)	30	248 pM	7530 pM	increases the fibril-forming tendency	<5 h	12 h	12 h
CC[C@H](C)[C@H](NC(=O)[C@@H]1CCCN1C(=O)CNC(=O)[C@H](Cc1ccccc1)NC(=O)[C@H](CC(N)=O)NC(=O)C(C)(C)NC(=O)[C@H](CO)NC(=O)[C@H](CO)NC(=O)[C@H](Cc1c[nH]cn1)NC(=O)[C@@H](NC(=O)[C@H](CC(C)C)NC(=O)[C@H](Cc1ccccc1)NC(=O)[C@H](CC(N)=O)NC(=O)[C@H](C)NC(=O)[C@H](CC(C)C)NC(=O)[C@H](CCCNC(=N)N)NC(=O)[C@H](CCC(N)=O)NC(=O)[C@@H](NC(=O)[C@H](C)NC(=O)[C@@H]1CSSC[C@H](NC(=O)[C@H](CCCCN)NC(=O)[C@@H](N)CCCCNC(=O)CC[C@H](NC(=O)CC[C@H](NC(=O)CCCCCCCCCCCCCCCCC(=O)O)C(=O)O)C(=O)O)C(=O)N[C@@H](CC(N)=O)C(=O)N[C@@H]([C@@H](C)O)C(=O)N[C@@H](C)C(=O)N[C@@H]([C@@H](C)O)C(=O)N1)[C@@H](C)O)C(C)C)C(=O)N[C@@H](CC(C)C)C(=O)N1CCC[C@H]1C(=O)N1CCC[C@H]1C(=O)N[C@H](C(=O)N[C@@H](CCCNC(=N)N)C(=O)N[C@H](C(=O)NCC(=O)N[C@@H](CO)C(=O)N[C@@H](CC(N)=O)C(=O)N[C@H](C(=O)N[C@@H](Cc1ccc(O)cc1)C(N)=O)[C@@H](C)O)C(C)C)[C@@H](C)O [Peptide 70, K(γE-γE-C18diacid)K[CNTATC]ATQRLANFLVHSS(Aib)NFGPILPPTRVGSNTY-amide] (H-K([γGlu-γGlu-C18 diacid])KCNTATCATQRLANFLVHSS[Aib]NFGPILPPTRVGSNTY-NH2; disulfide 3-8; N-terminus assumed)	23	235 pM	5400 pM	–	>144 h	10.3 h	12.5 h

Compounds with a lower EC50 [1], results first:

Ratio (selectivity hAMYR vs hCTR, ratio of EC50 values at the two receptors) [1]	EC50 [1]	EC50 [2]	fibril-forming tendency ([3]; ThT assay, 1 mg/mL, pH 4.0, 37 °C, compared to pramlintide)	Time taken to detect increase in fluorescence intensity [3]	half-life ([4]; iv)	half-life ([4]; sc)	Structure (SMILES)
12	105 pM	1250 pM	–	>144 h	6.9 h	8 h	CC[C@H](C)[C@H](NC(=O)[C@@H]1CCCN1C(=O)CNC(=O)[C@](C)(Cc1ccccc1)NC(=O)[C@H](CC(N)=O)NC(=O)[C@H](CC(N)=O)NC(=O)[C@H](CO)NC(=O)[C@H](CO)NC(=O)[C@H](Cc1c[nH]cn1)NC(=O)[C@@H](NC(=O)[C@H](CC(C)C)NC(=O)[C@H](Cc1ccccc1)NC(=O)[C@H](CC(N)=O)NC(=O)[C@H](C)NC(=O)[C@H](CC(C)C)NC(=O)[C@H](CCCNC(=N)N)NC(=O)[C@H](CCC(N)=O)NC(=O)[C@@H](NC(=O)[C@H](C)NC(=O)[C@@H]1CSSC[C@H](NC(=O)[C@@H](N)CCCCNC(=O)CC[C@H](NC(=O)CCCCCCCCCCCCCCCCC(=O)O)C(=O)O)C(=O)N[C@@H](CC(N)=O)C(=O)N[C@@H]([C@@H](C)O)C(=O)N[C@@H](C)C(=O)N[C@@H]([C@@H](C)O)C(=O)N1)[C@@H](C)O)C(C)C)C(=O)N[C@@H](CC(C)C)C(=O)N1CCC[C@H]1C(=O)N1CCC[C@H]1C(=O)N[C@H](C(=O)N[C@@H](CCCNC(=N)N)C(=O)N[C@H](C(=O)NCC(=O)N[C@@H](CO)C(=O)N[C@@H](CC(N)=O)C(=O)N[C@H](C(=O)N[C@@H](Cc1ccc(O)cc1)C(N)=O)[C@@H](C)O)C(C)C)[C@@H](C)O [Peptide 25, K(γE-C18diacid)[CNTATC]ATQRLANFLVHSSNN(αMePhe)GPILPPTRVGSNTY-amide] (H-K([γGlu-C18 diacid])CNTATCATQRLANFLVHSSNN[αMeF]GPILPPTRVGSNTY-NH2; disulfide 2-7)
25	136 pM	3410 pM	–	>144 h	8 h	8.1 h	CC[C@H](C)[C@H](NC(=O)[C@@H]1CCCN1C(=O)CNC(=O)[C@](C)(Cc1ccccc1)NC(=O)[C@H](CC(N)=O)NC(=O)[C@H](CC(N)=O)NC(=O)[C@H](CO)NC(=O)[C@H](CO)NC(=O)[C@H](Cc1c[nH]cn1)NC(=O)[C@@H](NC(=O)[C@H](CC(C)C)NC(=O)[C@H](Cc1ccccc1)NC(=O)[C@H](CC(N)=O)NC(=O)[C@H](C)NC(=O)[C@H](CC(C)C)NC(=O)[C@H](CCCNC(=N)N)NC(=O)[C@H](CCC(N)=O)NC(=O)[C@@H](NC(=O)[C@H](C)NC(=O)[C@@H]1CSSC[C@H](NC(=O)[C@@H](N)CCCCNC(=O)CC[C@H](NC(=O)CC[C@H](NC(=O)CCCCCCCCCCCCCCCCC(=O)O)C(=O)O)C(=O)O)C(=O)N[C@@H](CC(N)=O)C(=O)N[C@@H]([C@@H](C)O)C(=O)N[C@@H](C)C(=O)N[C@@H]([C@@H](C)O)C(=O)N1)[C@@H](C)O)C(C)C)C(=O)N[C@@H](CC(C)C)C(=O)N1CCC[C@H]1C(=O)N1CCC[C@H]1C(=O)N[C@H](C(=O)N[C@@H](CC(N)=O)C(=O)N[C@H](C(=O)NCC(=O)N[C@@H](CO)C(=O)N[C@@H](CCCNC(=N)N)C(=O)N[C@H](C(=O)N[C@@H](Cc1ccc(O)cc1)C(N)=O)[C@@H](C)O)C(C)C)[C@@H](C)O [Peptide 21, K(γE-γE-C18diacid)[CNTATC]ATQRLANFLVHSSNN(αMePhe)GPILPPTNVGSRTY-amide] (H-K([γGlu-γGlu-C18 diacid])CNTATCATQRLANFLVHSSNN[αMeF]GPILPPTNVGSRTY-NH2; disulfide 2-7; N-terminus assumed)
10	164 pM	1570 pM	–	–	6.3 h	8.5 h	CC[C@H](C)[C@H](NC(=O)[C@@H]1CCCN1C(=O)CNC(=O)[C@H](Cc1ccccc1)NC(=O)[C@H](CC(N)=O)NC(=O)C(C)(C)NC(=O)[C@H](CO)NC(=O)[C@H](CO)NC(=O)[C@H](Cc1c[nH]cn1)NC(=O)[C@@H](NC(=O)[C@H](CC(C)C)NC(=O)[C@H](Cc1ccccc1)NC(=O)[C@H](CC(N)=O)NC(=O)[C@H](C)NC(=O)[C@H](CC(C)C)NC(=O)[C@H](CCCNC(=N)N)NC(=O)[C@H](CCC(N)=O)NC(=O)[C@@H](NC(=O)[C@H](C)NC(=O)[C@@H]1CSSC[C@H](NC(=O)[C@H](CCCCN)NC(=O)[C@@H](N)CCCCNC(=O)CC[C@H](NC(=O)CCCCCCCCCCCCCCCCC(=O)O)C(=O)O)C(=O)N[C@@H](CC(N)=O)C(=O)N[C@@H]([C@@H](C)O)C(=O)N[C@@H](C)C(=O)N[C@@H]([C@@H](C)O)C(=O)N1)[C@@H](C)O)C(C)C)C(=O)N[C@@H](CC(C)C)C(=O)N1CCC[C@H]1C(=O)N1CCC[C@H]1C(=O)N[C@H](C(=O)N[C@@H](CCCNC(=N)N)C(=O)N[C@H](C(=O)NCC(=O)N[C@@H](CO)C(=O)N[C@@H](CC(N)=O)C(=O)N[C@H](C(=O)N[C@@H](Cc1ccc(O)cc1)C(N)=O)[C@@H](C)O)C(C)C)[C@@H](C)O [Peptide 69, K(γE-C18diacid)K[CNTATC]ATQRLANFLVHSS(Aib)NFGPILPPTRVGSNTY-amide] (H-K([γGlu-C18 diacid])KCNTATCATQRLANFLVHSS[Aib]NFGPILPPTRVGSNTY-NH2; disulfide 3-8)
